Test results as given in patent US9447069B2, “ROR modulators and their uses” (INNOV17 LLC, priority 2012, dated 2016).
Read-outs that look alike come from different tables or passages of the source.

What was measured:
IL-23R = assay: Real-Time qRT-PCR gene expression in TH17 cells (IL-23R); type: cell-based, human; design: key: A: No change in gene expression observed relative to DMSO treated Th17 cells; B: Decreased gene expression observed relative to DMSO treated Th17 cells; C: Increased gene expression observed relative to DMSO treated Th17 cells; conditions: normalized to six reference genes
Protocol: (§1) Peripheral blood mononuclear cells (PBMCs) were sourced from freshly prepared leukocyte enriched plasma (buffy coat) from healthy volunteers from which PBMCs were isolated by density gradient centrifugation using Ficoll-Paque™ PLUS (GE Healthcare). Naïve CD4+ T cells were isolated using the Naïve CD4+ T cell Isolation Kit II (Miltenyi Biotec) as per manufacturer's instructions. CD4+ T cells were plated at 5×10^4 cells/well in 96 well plates pre-coated with immobilized human (h)-αCD3 antibody (eBioscience) then differentiated to TH17 cells using h-αCD28, h-αIFN-γ, h-αIL-4, h-IL-6, h-IL-23, h-IL-1β, h-TGF-β1 (eBioscience) and maintained in a cell culture incubator at 37° C. with 5% CO2 in TexMACS Medium (Miltenyi Biotec) supplemented with 1% Penicillin/Streptomycin (Lonza) over 5 days.
(§2) RNA was isolated from TH17 cells and cDNA was synthesized using the Verso cDNA kit (Thermo Scientific) as per manufacturer's instructions. IL-17A, IL-17F, IL-21, IL-22, G-CSF, IL-23R and FOXP3 gene expression were determined for compound treated and untreated TH17 cell samples using Solaris qPCR Gene expression assays (Thermo Scientific) with an iCycler iQ Real-Time PCR Detection System (Bio-Rad). Individual gene expression was normalized to a panel of six reference genes (ACTB, TBP, HPRT1, PGK1, TFRC and PPIA) (Thermo Scientific) and analyzed by REST 2009 (Qiagen) in accordance to MIQE guidelines (Bustin et al. (2009) Clin. Chem, 55:611-622). The effects of compounds on TH17 cytokine gene expression are presented as fold change in mRNA levels of compound treated TH17 cells relative to DMSO treated cells in the table below.

IL-22 = assay: TH17 cytokine inhibition measured by ELISA (IL-22); type: cell-based; conditions: 120 h; human TH17 cells, 5 days differentiation, ELISA of supernatants, 0.1% DMSO
Protocol: as §1
(§3) Human CD4+ T cells were differentiated to TH17 cells as described in the presence or absence of various concentrations of compounds in a final concentration of 0.1% DMSO in TexMACS medium. Supernatants were collected and stored at −20° C. until they were to be assayed for IL-17A, IL-17F, IL-17AF, IL-21 and/or IL-22 levels as determined by Ready-Set-Go ELISA kits (eBioscience) as per manufacturer's instructions. Endpoint absorbance was read at 450 nm and 570 nm according to manufacturer's instructions (eBioscience) using a microplate reader (Perkin Elmer). The percentage of cytokine inhibition was calculated with reference to DMSO treated cells and the IC50s were determined by GraphPad Prism software and presented in the table below.

RORα LBD = target: T1, RORα LBD (Homo sapiens, UniProt P35398); assay: TR-FRET D22 co-activator displacement from RORα LBD; type: biochemical
T1 construct: purified GST-tagged (i) RORγ LBD or (ii) RORα LBD; purchased Life Technologies
T1 sequence (P35398 272-510 limits assumed): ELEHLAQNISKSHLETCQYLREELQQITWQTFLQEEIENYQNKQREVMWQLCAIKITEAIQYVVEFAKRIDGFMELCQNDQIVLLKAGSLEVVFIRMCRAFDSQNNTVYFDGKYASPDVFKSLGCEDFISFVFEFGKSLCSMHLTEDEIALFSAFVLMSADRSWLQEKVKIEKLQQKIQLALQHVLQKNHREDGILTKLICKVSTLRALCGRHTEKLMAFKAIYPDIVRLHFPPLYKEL
From the text: The Time-Resolved Fluorescence Resonance Energy Transfer (TR-FRET) assay kit (Life Technologies) was used to measure compound efficacy to disrupt or enhance ligand-mediated interaction of the co-activator and co-repressor peptides with the purified GST-tagged (i) RORγ LBD or (ii) RORα LBD. The RORγ LBD and RORα LBD each have a basal level of interaction with the co-activator D22 or co-repressor NCoR1-D2 in the absence of ligand, thus it is possible to identify compounds that inhibit or induce RORγ and/or RORα co-activator/co-repressor interactions, thus determining RORα, RORγ, or RORα/RORγ compound selectivity. The assay was performed as per manufacturer's instructions and TR-FRET was assessed 2 and 20 hours post-assay initiation. Compounds were identified to (i) have no impact on either co-activator displacement or […] from the assessed LBD (ii) promote co-activator displacement from the assessed LBD (iii) promote co-repressor recruitment to the assessed LBD or (iv) concurrently promote co-activator displacement from the assessed LBD and co-repressor recruitment to the assessed LBD.

IL-17A [1] = assay: TH17 cytokine inhibition measured by ELISA (IL-17A); type: cell-based; conditions: 120 h; human TH17 cells, 5 days differentiation, ELISA of supernatants, 0.1% DMSO
Protocol: as §1, §3

TH17 cells = assay: TH17 cellular proliferation (Prestoblue); type: cell-based; conditions: Homo sapiens, 120 h; 3 μM compound, after 5 day TH17 differentiation, relative to DMSO treated TH17 cells; read-out: % change in TH17 cell number
Protocol: as §1
Cellular proliferation was assessed in the presence or absence of 3 μM compound using Prestoblue® Cell Viability Reagent (Life Technologies) as per manufacturer's instructions using absorbance as the output measured by a microplate reader (Perkin Elmer) after 30 minutes of incubation. A standard curve developed by plotting varying cell numbers versus absorbance was used to assess differences in cellular proliferation between compound treated or untreated cells after the 5 day TH17 differentiation period.

IL-17A [2] = assay: Real-Time qRT-PCR gene expression in TH17 cells (IL-17A); type: cell-based, human; design: key: A: No change in gene expression observed relative to DMSO treated Th17 cells; B: Decreased gene expression observed relative to DMSO treated Th17 cells; C: Increased gene expression observed relative to DMSO treated Th17 cells; conditions: normalized to six reference genes
Protocol: as §1, §2

RORγ LBD = target: T2, RORγ LBD (Homo sapiens, UniProt P51449); assay: RORγ LBD binding (Human RORγ Assay System, INDIGO Biosciences); design: purchased INDIGO Biosciences Inc; conditions: 0.5% DMSO
T2 sequence (P51449 269-508 limits assumed): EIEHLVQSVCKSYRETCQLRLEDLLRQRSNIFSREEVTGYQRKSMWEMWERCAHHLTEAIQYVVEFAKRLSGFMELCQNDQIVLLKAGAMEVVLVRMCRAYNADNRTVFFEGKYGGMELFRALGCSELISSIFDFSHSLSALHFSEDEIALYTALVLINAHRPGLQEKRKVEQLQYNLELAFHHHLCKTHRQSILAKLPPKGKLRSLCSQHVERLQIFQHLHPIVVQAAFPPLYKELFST
Protocol: Compound binding to the human RORγ LBD was assessed using the Human RORγ Assay System (INDIGO Biosciences Inc.) as per manufacturer's instructions.

[3] = TR-FRET assessed 2 hr post-assay initiation, read-out: RORα EC50 D22 co-activator displacement, 2 hr
[4] = TR-FRET assessed 20 hr post-assay initiation, read-out: RORα EC50 D22 co-activator displacement, 20 hr

| Compound | Fold change in mRNA levels of compound treated TH17 cells relative to DMSO treated cells, IL-23R (IL-23R) | IC50 (IL-22) [µM] | EC50 (RORα LBD; [3]) [µM] | EC50 (RORα LBD; [4]) [µM] | IC50 (IL-17A [1]) [µM] | inhibition at 3 µM (TH17 cells) [%] | Fold change in mRNA levels of compound treated TH17 cells relative to DMSO treated cells, IL-17A (IL-17A [2]) | IC50 (RORγ LBD) [µM] |
| --- | --- | --- | --- | --- | --- | --- | --- | --- |
| Cc1cc(-c2ccc3c(c2)CCCN3Cc2ccc(C(O)(C(F)(F)F)C(F)(F)F)cc2)[nH]n1 [Example 1, 1,1,1,3,3,3-hexafluoro-2-(4-((6-(3-methyl-1H-pyrazol-5-yl)-3,4-dihydroquinolin-1(2H)-yl)methyl)phenyl)propan-2-ol] | A | < 10 | > 30 | < 30 | < 10 | > 50 | A | > 10 |
| OC(c1ccc(CN2CCCc3cc(-c4cn[nH]c4)ccc32)cc1)(C(F)(F)F)C(F)(F)F [Example 2, 2-(4-((6-(1H-pyrazol-4-yl)-3,4-dihydroquinolin-1(2H)-yl)methyl)phenyl)-1,1,1,3,3,3-hexafluoropropan-2-ol] | A | < 10 | < 30 | < 30 | < 10 | > 50 | B | > 10 |
| Cc1n[nH]c(-c2ccc3c(c2)CCCN3Cc2ccc(C(O)(C(F)(F)F)C(F)(F)F)cc2)n1 [Example 3, 1,1,1,3,3,3-hexafluoro-2-(4-((6-(3-methyl-1H-1,2,4-triazol-5-yl)-3,4-dihydroquinolin-1(2H)-yl)methyl)phenyl)propan-2-ol] | A | < 10 | > 30 | > 30 | < 10 | > 50 | B | > 10 |
| Cc1cc(-c2ccc3c(c2)CCC(=O)N3Cc2ccc(C(O)(C(F)(F)F)C(F)(F)F)cc2)[nH]n1 [Example 4, 1-(4-(1,1,1,3,3,3-hexafluoro-2-hydroxypropan-2-yl)benzyl)-6-(3-methyl-1H-pyrazol-5-yl)-3,4-dihydroquinolin-2(1H)-one] | A | < 10 | > 30 | > 30 | < 10 | ≤ 50 | B | < 10 |
| O=C1CCc2cc(-c3cn[nH]c3)ccc2N1Cc1ccc(C(O)(C(F)(F)F)C(F)(F)F)cc1 [Example 5, 1-(4-(1,1,1,3,3,3-hexafluoro-2-hydroxypropan-2-yl)benzyl)-6-(1H-pyrazol-4-yl)-3,4-dihydroquinolin-2(1H)-one] | A | < 10 | > 30 | > 30 | < 10 | ≤ 50 | A | > 10 |
| Cc1n[nH]c(-c2ccc3c(c2)CCC(=O)N3Cc2ccc(C(O)(C(F)(F)F)C(F)(F)F)cc2)n1 [Example 6, 1-(4-(1,1,1,3,3,3-hexafluoro-2-hydroxypropan-2-yl)benzyl)-6-(3-methyl-1H-1,2,4-triazol-5-yl)-3,4-dihydroquinolin-2(1H)-one] | C | < 10 | < 30 | < 30 | < 10 | ≤ 50 | B | > 10 |
